# Laboratory results taken from patent publication US20120129809A1, “LUNG CANCER TREATMENT” (priority 2009, published 2012).
# Legend:
# [1] = system: human tumor cell lines; test: antiproliferative activity in human tumor cell lines; assay type: cell-based; conditions: broad range of human tumor cell lines, including NSCLC, fibrosarcoma, glioblastoma, erythroleukemia, prostate, colon, ovarian, endometrial and breast cancers
# [2] = system: human tumor cell line xenografts; test: murine tumor xenograft models utilizing human tumor cell lines; assay type: in vivo; conditions: xenografts representing glioblastoma, prostate, breast, lung, colon and pancreatic cancers
# [3] = system: NSCLC cell lines (KRAS mutant and KRAS wild-type); test: panel of more than 100 NSCLC cell lines; assay type: cell-based
# [4] = system: H2122; test: KRAS mutant NSCLC xenograft H2122; assay type: in vivo
# [5] = system: A549; test: KRAS mutant NSCLC xenograft A549; assay type: in vivo
# [6] = system: several tumor types, such as sarcomas; test: clinical development in advanced cancers; assay type: in vivo
# [7] = side effects in patients; assay type: in vivo; conditions: onset as early as first week of treatment
# [8] = system: CYP3A
# [9] = system: PTEN-deficient tumor cell lines; conditions: PTEN-deficient lines including glioblastoma, prostate, breast, pancreas, lung and colon; cited from earlier work
structure (smiles),measurement,setting,value
CO[C@H]1C[C@@H]2CC[C@@H](C)[C@@](O)(O2)C(=O)C(=O)N2CCCCC2C(=O)O[C@H]([C@H](C)C[C@@H]2CC[C@H](OP(C)(C)=O)[C@H](OC)C2)CC(=O)[C@H](C)/C=C(\C)[C@@H](O)[C@H](OC)C(=O)[C@H](C)C[C@@H](C)/C=C/C=C/C=C/1C (stereo in doubt) [Deforolimus],antiproliferative activity,[1],demonstrated antiproliferative activity
same,in vivo activity,[2],demonstrated in vivo activity
same,activity in KRAS mutant versus KRAS wild-type cells,[3],the same in both KRAS mutant and KRAS wild-type cells
same,anti-tumor activity,[4],showed anti-tumor activity
same,anti-tumor activity,[5],showed anti-tumor activity
same,anti-tumor activity,[6],evidence of anti-tumor activity
same,side effect,[7],mouth sores typically reported as mucositis
same,metabolism by CYP3A,[8],extensively metabolized by CYP3A
same,antiproliferative activity,[9],demonstrated antiproliferative activity
